Laboratory results: PubChem BioAssay AID1919014 (Molecular Pharmacology Branch, DTP, NCI, 2023)
Where “and” joins values, the source holds several entries; their conditions need not be identical. Equal values may be shown once.

Tested on: NCI-H1341 complex spheroids, percent test/control
Experiment: Anticancer human tumor NCI-H1341 cell line growth inhibition [AhR];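 also: spheroids exposed to agents for seven days before readout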
Details: for viability, T/C: stronger effect = lower value; active = viability on the fitted dose curve at most 10% of control; inactive = the rest
Method in brief: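 Complex tumor spheroids co-cultured with HUVEC and human MSC stroma; AhR antagonists tested in combination with standard-of-care and investigational agents. Top concentration at or near clinical Cmax (else 10 microM), half-log dilutions; growth expressed as percent test/control.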

[1] = curve of first compound, second compound 0.1 µM
[2] = curve of first compound, second compound 0.316 µM
[3] = curve of first compound, second compound 1 µM
[4] = curve of first compound, second compound 3.16 µM
[5] = curve of first compound, second compound 10 µM
[6] = second compound 0.1 µM, first compound 0.0316 µM
[7] = second compound 0.1 µM, first compound 0.1 µM
[8] = second compound 0.1 µM, first compound 0.316 µM
[9] = second compound 0.1 µM, first compound 1 µM
[10] = second compound 0.1 µM, first compound 3.16 µM
[11] = second compound 0.1 µM, first compound 10 µM
[12] = second compound 0.316 µM, first compound 0.0316 µM
[13] = second compound 0.316 µM, first compound 0.1 µM
[14] = second compound 0.316 µM, first compound 0.316 µM
[15] = second compound 0.316 µM, first compound 1 µM
[16] = second compound 0.316 µM, first compound 3.16 µM
[17] = second compound 0.316 µM, first compound 10 µM
[18] = second compound 1 µM, first compound 0.0316 µM
[19] = second compound 1 µM, first compound 0.1 µM
[20] = second compound 1 µM, first compound 0.316 µM
[21] = second compound 1 µM, first compound 1 µM
[22] = second compound 1 µM, first compound 3.16 µM
[23] = second compound 1 µM, first compound 10 µM
[24] = second compound 3.16 µM, first compound 0.0316 µM
[25] = second compound 3.16 µM, first compound 0.1 µM
[26] = second compound 3.16 µM, first compound 0.316 µM
[27] = second compound 3.16 µM, first compound 1 µM
[28] = second compound 3.16 µM, first compound 3.16 µM
[29] = second compound 3.16 µM, first compound 10 µM
[30] = second compound 10 µM, first compound 0.0316 µM
[31] = second compound 10 µM, first compound 0.1 µM
[32] = second compound 10 µM, first compound 0.316 µM
[33] = second compound 10 µM, first compound 1 µM
[34] = second compound 10 µM, first compound 3.16 µM
[35] = second compound 10 µM, first compound 10 µM

Nc1ncn(C2CC(O)C(CO)S2)c(=O)n1 (stereo unspecified)
inactive: viability, T/C (compound 0.000949 µM) 109% and 96.2% and 95% | viability, T/C (compound 0.003 µM) 90.5% and 73.4% and 100% | viability, T/C (compound 0.00949 µM) 115% and 102% and 104% | viability, T/C (compound 0.03 µM) 105% and 80.6% and 104% | viability, T/C (compound 0.0949 µM) 89.2% and 68.3% and 79% | viability, T/C (compound 0.3 µM) 68.2% and 49.5% and 62%
> 300 nM and 294 nM: IC50 (curve of compound)

Nc1ccn(C2OC(CO)C(O)C2(F)F)c(=O)n1 (stereo unspecified) + CC(CO)NC(=O)c1cc(-c2ccc(Cl)cc2)nn(-c2cnn(C)c2)c1=O
inactive: viability, T/C [6] 28% | viability, T/C [7] 28% | viability, T/C [8] 27.7% | viability, T/C [9] 25.3% | viability, T/C [10] 27.3% | viability, T/C [11] 26.4% | viability, T/C [12] 30.9% | viability, T/C [13] 29.1% | viability, T/C [14] 25.6% | viability, T/C [15] 26.9% | viability, T/C [16] 24.4% | viability, T/C [17] 24.1% | viability, T/C [18] 28.6% | viability, T/C [19] 29.3% | viability, T/C [20] 30.5% | viability, T/C [21] 23.8% | viability, T/C [22] 26.1% | viability, T/C [23] 25.9% | viability, T/C [24] 30.1% | viability, T/C [25] 29.1% | viability, T/C [26] 30% | viability, T/C [27] 24% | viability, T/C [28] 25.3% | viability, T/C [29] 27% | viability, T/C [30] 33.6% | viability, T/C [31] 29.8% | viability, T/C [32] 27.4% | viability, T/C [33] 24.3% | viability, T/C [34] 22.3% | viability, T/C [35] 21.4%
< 31.6 nM: IC50 [1] | IC50 [2] | IC50 [3] | IC50 [4] | IC50 [5]

O=C(C=Cc1cccc(S(=O)(=O)Nc2ccccc2)c1)NO + Cc1cncc(-c2nc(NCCc3c[nH]c4ccccc34)c3ncn(C(C)C)c3n2)c1
366 nM: IC50 [2]
150 nM: IC50 [4]
< 31.6 nM: IC50 [5]
278 nM: IC50 [1]
179 nM: IC50 [3]
inactive: viability, T/C [6] 71.7% | viability, T/C [7] 80.8% | viability, T/C [8] 43.8% | viability, T/C [9] 16% | viability, T/C [12] 76.2% | viability, T/C [13] 74.7% | viability, T/C [14] 55.1% | viability, T/C [15] 15.3% | viability, T/C [18] 80.3% | viability, T/C [19] 55.7% | viability, T/C [20] 44.9% | viability, T/C [21] 22.9% | viability, T/C [24] 71.2% | viability, T/C [25] 55.6% | viability, T/C [26] 38.1% | viability, T/C [27] 13.1% | viability, T/C [30] 37% | viability, T/C [31] 33.9% | viability, T/C [32] 20.2% | viability, T/C [33] 9.91%
active: viability, T/C [10] 5.29% | viability, T/C [11] 0.53% | viability, T/C [16] 5.78% | viability, T/C [17] 0.65% | viability, T/C [22] 5.39% | viability, T/C [23] 0.5% | viability, T/C [28] 4.08% | viability, T/C [29] 0.56% | viability, T/C [34] 2.99% | viability, T/C [35] 0.32%

CCN(c1cc(-c2ccc(CN3CCOCC3)cc2)cc(C(=O)NCc2c(C)cc(C)[nH]c2=O)c1C)C1CCOCC1 + Cc1cncc(-c2nc(NCCc3c[nH]c4ccccc34)c3ncn(C(C)C)c3n2)c1
inactive: viability, T/C (second compound 0.1 µM, first compound 0.00949 µM) 72.4% | viability, T/C (second compound 0.1 µM, first compound 0.03 µM) 91.7% | viability, T/C (second compound 0.1 µM, first compound 0.0949 µM) 68.9% | viability, T/C (second compound 0.1 µM, first compound 0.3 µM) 70.9% | viability, T/C (second compound 0.1 µM, first compound 0.949 µM) 74.5% | viability, T/C (second compound 0.1 µM, first compound 3 µM) 63.9% | viability, T/C (second compound 0.316 µM, first compound 0.00949 µM) 97.3% | viability, T/C (second compound 0.316 µM, first compound 0.03 µM) 82.3% | viability, T/C (second compound 0.316 µM, first compound 0.0949 µM) 89% | viability, T/C (second compound 0.316 µM, first compound 0.3 µM) 76.1% | viability, T/C (second compound 0.316 µM, first compound 0.949 µM) 85% | viability, T/C (second compound 0.316 µM, first compound 3 µM) 76.8% | viability, T/C (second compound 1 µM, first compound 0.00949 µM) 69.5% | viability, T/C (second compound 1 µM, first compound 0.03 µM) 86.7% | viability, T/C (second compound 1 µM, first compound 0.0949 µM) 69.8% | viability, T/C (second compound 1 µM, first compound 0.3 µM) 72% | viability, T/C (second compound 1 µM, first compound 0.949 µM) 65% | viability, T/C (second compound 1 µM, first compound 3 µM) 57.5% | viability, T/C (second compound 3.16 µM, first compound 0.00949 µM) 66.1% | viability, T/C (second compound 3.16 µM, first compound 0.03 µM) 77.3% | viability, T/C (second compound 3.16 µM, first compound 0.0949 µM) 66.4% | viability, T/C (second compound 3.16 µM, first compound 0.3 µM) 67.3% | viability, T/C (second compound 3.16 µM, first compound 0.949 µM) 56.7% | viability, T/C (second compound 3.16 µM, first compound 3 µM) 54.4% | viability, T/C (second compound 10 µM, first compound 0.00949 µM) 40.6% | viability, T/C (second compound 10 µM, first compound 0.03 µM) 41.7% | viability, T/C (second compound 10 µM, first compound 0.0949 µM) 44.1% | viability, T/C (second compound 10 µM, first compound 0.3 µM) 33.4% | viability, T/C (second compound 10 µM, first compound 0.949 µM) 34.4% | viability, T/C (second compound 10 µM, first compound 3 µM) 32.5%
< 9.49 nM: IC50 [5]
> 3000 nM: IC50 [1] | IC50 [2] | IC50 [3] | IC50 [4]

O=C(c1cc(Cc2n[nH]c(=O)c3ccccc23)ccc1F)N1CCN(C(=O)C2CC2)CC1 + Cc1cncc(-c2nc(NCCc3c[nH]c4ccccc34)c3ncn(C(C)C)c3n2)c1
inactive: viability, T/C [6] 87.6% | viability, T/C [7] 80.9% | viability, T/C [8] 82.1% | viability, T/C [9] 85.5% | viability, T/C [10] 76.7% | viability, T/C [11] 61.7% | viability, T/C [12] 72.7% | viability, T/C [13] 91.4% | viability, T/C [14] 64.4% | viability, T/C [15] 77.5% | viability, T/C [16] 74.1% | viability, T/C [17] 63% | viability, T/C [18] 88.3% | viability, T/C [19] 61.2% | viability, T/C [20] 70.8% | viability, T/C [21] 79.3% | viability, T/C [22] 71% | viability, T/C [23] 62.7% | viability, T/C [24] 57.5% | viability, T/C [25] 61.1% | viability, T/C [26] 60.6% | viability, T/C [27] 62% | viability, T/C [28] 68.1% | viability, T/C [29] 51.4% | viability, T/C [30] 19.4% | viability, T/C [31] 19.5% | viability, T/C [32] 19.6% | viability, T/C [33] 21.3% | viability, T/C [34] 21.2% | viability, T/C [35] 22.1%
> 10000 nM: IC50 [1] | IC50 [2] | IC50 [3] | IC50 [4]
< 31.6 nM: IC50 [5]

CC(C)CC(NC(=O)C(Cc1ccccc1)NC(=O)c1cnccn1)B(O)O (stereo unspecified)
inactive: viability, T/C (compound 0.000949 µM) 97% and 95% and 100% | viability, T/C (compound 0.003 µM) 87.7% and 87% and 79%
active: viability, T/C (compound 0.00949 µM) 2.76% and 3.47% and 0.86% | viability, T/C (compound 0.03 µM) 0.19% and 0.35% and 0.14% | viability, T/C (compound 0.0949 µM) 0.14% and 0.25% and 0.11% | viability, T/C (compound 0.3 µM) 0.17% and 0.31% and 0.15%
5 nM and 4.6 nM: IC50 (curve of compound)

CCc1c2c(nc3ccc(O)cc13)-c1cc3c(c(=O)n1C2)COC(=O)[C@]3(O)CC
10.5 nM and 19.6 nM and 12.3 nM: IC50 (curve of compound)
inactive: viability, T/C (compound 0.000949 µM) 89.8% and 92.6% and 89% | viability, T/C (compound 0.003 µM) 77% and 86.1% and 83.9% | viability, T/C (compound 0.00949 µM) 46.3% and 51.3% and 49.4% | viability, T/C (compound 0.03 µM) 34.4% and 45.9% and 36.6% | viability, T/C (compound 0.0949 µM) 27.4% and 34.4% and 28.5% | viability, T/C (compound 0.3 µM) 13.3% and 18.2% and 17%
